Experimental data published in BindingDB's records for doi:10.1124/mol.54.2.322 (Georgetown University, 1998).

Legend:
[1] = target: Neuronal acetylcholine receptor subunit alpha-3 (Rattus norvegicus, UniProt P04757)
[2] = target: Nicotinic acetylcholine receptor (Rattus leucopus, UniProt Q62594)
Nicotinic acetylcholine receptor, sequence (Q62594 whole entry): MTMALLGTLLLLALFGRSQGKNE

Neuronal acetylcholine receptor subunit alpha-3, sequence (P04757 whole entry): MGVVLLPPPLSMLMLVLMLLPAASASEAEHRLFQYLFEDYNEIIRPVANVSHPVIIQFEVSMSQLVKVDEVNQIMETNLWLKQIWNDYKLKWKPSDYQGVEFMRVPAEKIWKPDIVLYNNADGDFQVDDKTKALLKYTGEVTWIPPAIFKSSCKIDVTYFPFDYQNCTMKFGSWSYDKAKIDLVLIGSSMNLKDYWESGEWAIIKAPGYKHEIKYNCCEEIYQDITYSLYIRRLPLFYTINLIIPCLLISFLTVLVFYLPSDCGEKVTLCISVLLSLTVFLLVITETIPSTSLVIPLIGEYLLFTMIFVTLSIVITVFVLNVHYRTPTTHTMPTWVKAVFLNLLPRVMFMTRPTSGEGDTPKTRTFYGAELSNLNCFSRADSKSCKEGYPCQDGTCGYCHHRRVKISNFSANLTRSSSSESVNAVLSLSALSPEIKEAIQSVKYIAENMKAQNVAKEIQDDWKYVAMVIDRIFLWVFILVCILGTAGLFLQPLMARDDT

SMILES | Ki [1] | Ki [2]
CO[C@@H]1CC=C2CCN3CCC4=C(CC(=O)OC4)[C@@]23C1 | > 10 µM | 
COc1cc2c3cc1Oc1cc(ccc1O)C[C@H]1c4c(cc(OC)c(O)c4Oc4ccc(cc4)C[C@@H]3N(C)CC2)CC[N+]1(C)C [CAS_57-94-3] | > 10 µM | 2.24 µM
C[N+](C)(C)CCOC(N)=O [(2-Hydroxyethyl)trimethyl ammonium chloride carbamate] | 3.84 µM | 
C[N+](C)(C)CCCCCC[N+](C)(C)C [Hexamethoniumdibromide] | > 10 µM | > 10 µM
O=c1cccc2n1C[C@H]1CNC[C@H]2C1 [(1S,9R)-7,11-diazatricyclo[7.3.1.0~2,7~]trideca-2,4-dien-6-one] | 0.195 µM | 
